# Data from patent US20210317090A1, “AMINO ACID DEPLETION AGENTS AS ANTIPROLIFERATIVE AGENTS” (University of Central Florida Research Foundation, Inc., priority 2018, published 2021).
# Molecular target: T1, LAT-1 (Homo sapiens, UniProt Q01650)
# T1 construct: endogenous in cells; host or cells: L3.6pl human pancreatic cancer cells
# Assay: 3H-Leucine efflux assay
# Type: cell-based
# Conditions: L3.6pl
# From the text: JPH203 is not toxic to L3.6pl cells over this concentration range and time interval. FIG. 10E is an example according to various embodiments, illustrating results obtained for a Leu uptake inhibition experiment with compound 10. Note: the y-axis in FIG. 10E is in CPM per ug of protein to normalize the data and account for any potential losses of cells due to toxicity of compound 10. FIG. 10F is an example according to various embodiments, illustrating results obtained for a Leucine efflux experiment with LAT-1 inhibitor JPH-203. Briefly, the efflux procedure involved cells pre-incubated with ‘hot’ leucine (3H labeled) and washed to remove unbound radiolabeled Leucine. The cells were then incubated in the presence and absence of unlabeled Leucine (100 μM) and/or the LAT-1 inhibitor JPH-203 (30 μM). In the presence of unlabeled leucine, the cells released ‘hot’ 3H-leucine into the media which was measured via scintillation/radioactivity counts. This efflux or release from within the cell was inhibited by the presence of the LAT-1 inhibitor, JPH-203 (30 μM, FIG. 10F). Since JPH203 inhibits the import of unlabeled leucine then less unlabeled Leucine will enter the cell and less efflux of radiolabeled Leucine molecules from inside the cell will be observed. This is consistent with JPH-203 being a LAT-1 inhibitor. FIG. 10G is an example according to various embodiments, illustrating results obtained for a two minute Leucine efflux experiment with compound 10. Cells were pre-incubated with ‘hot’ leucine (^3H labeled) and washed to remove unbound radiolabeled Leucine. The cells were then incubated in the presence and absence of unlabeled “cold” Leucine (100 μM) and/or the compound 10 (20 μM). In the presence of unlabeled ‘cold’ leucine, the cells released ‘hot’ ^3H-leucine into the media which was measured via scintillation/radioactivity counting. […] The efflux experiment was repeated and the time for monitoring efflux increased to 30 minutes. […] In summary, compound 10 inhibits Leucine uptake and facilitates LAT-1 mediated efflux.
# ^3H-Leucine Efflux Assay ^3H-Leucine efflux experiments were performed according to the protocol developed by Hälfliger et al. (2018) (referenced below) with the following changes. Briefly, cells were preloaded with 12 μM stock of L-[^3H]leucine (79 Ci/mmol) to give a final concentration of ^3H-leucine was 1.2 μM in each well. […] The medium was then collected and mixed with scintillation fluid (Scintiverse™ BD Cocktail) and radioactivity measured (Beckman Coulter LS 6500 Multi-Purpose Scintillation Counter). […] The lysate (300 μL) was mixed with scintillation fluid and radioactivity was counted. Relative efflux was expressed as percentage radioactivity=100%×(radioactivity of medium)/(radioactivity of the medium+radioactivity of the cells). […]
# T1 sequence (Q01650 whole entry): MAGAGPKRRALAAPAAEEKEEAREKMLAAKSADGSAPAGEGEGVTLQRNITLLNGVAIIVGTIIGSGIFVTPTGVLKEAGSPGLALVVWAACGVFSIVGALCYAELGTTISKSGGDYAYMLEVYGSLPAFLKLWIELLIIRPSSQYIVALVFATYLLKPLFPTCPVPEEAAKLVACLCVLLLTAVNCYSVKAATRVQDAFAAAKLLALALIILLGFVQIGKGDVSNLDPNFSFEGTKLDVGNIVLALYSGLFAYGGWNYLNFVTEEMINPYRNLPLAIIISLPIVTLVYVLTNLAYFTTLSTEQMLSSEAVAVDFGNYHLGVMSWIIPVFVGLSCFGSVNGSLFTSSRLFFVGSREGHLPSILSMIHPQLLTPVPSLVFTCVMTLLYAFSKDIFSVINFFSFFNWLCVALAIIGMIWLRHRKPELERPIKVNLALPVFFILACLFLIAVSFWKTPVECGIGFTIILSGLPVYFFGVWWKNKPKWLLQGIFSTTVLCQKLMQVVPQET
# T1 sequence (P08195 102-630 partner): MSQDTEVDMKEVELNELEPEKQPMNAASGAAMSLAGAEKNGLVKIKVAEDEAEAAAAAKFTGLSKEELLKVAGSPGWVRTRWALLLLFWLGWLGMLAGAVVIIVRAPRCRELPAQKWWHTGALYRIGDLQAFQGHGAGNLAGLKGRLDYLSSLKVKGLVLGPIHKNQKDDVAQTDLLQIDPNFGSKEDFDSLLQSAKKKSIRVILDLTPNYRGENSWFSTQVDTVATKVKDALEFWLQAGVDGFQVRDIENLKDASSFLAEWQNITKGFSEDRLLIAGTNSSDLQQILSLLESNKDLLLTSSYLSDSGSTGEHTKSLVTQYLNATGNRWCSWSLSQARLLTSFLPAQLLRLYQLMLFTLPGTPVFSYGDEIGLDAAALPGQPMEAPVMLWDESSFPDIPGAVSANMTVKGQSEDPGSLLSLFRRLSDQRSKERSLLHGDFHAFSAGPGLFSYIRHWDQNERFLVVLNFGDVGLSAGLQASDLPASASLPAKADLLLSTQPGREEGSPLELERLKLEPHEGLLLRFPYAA
smiles,measurement,setting,value
"CC(C)CCN1CCN(C(CNCc2ccccc2)CC2CCCCC2)CC1CC(C)C.Cl.Cl.Cl (centres unmarked) [Compound 10, Benzyl-{3-cyclohexyl-2-[3-isobutyl-4-(3-methyl-butyl)-piperazin-1-yl]-propyl}-amine trihydrochloride salt]","3H-leucine efflux, compound alone","2 min, JPH-203 30 μM or compound 10 20 μM",slight increase in efflux
same,efflux of radiolabeled leucine,"30 minutes, in presence and absence of leucine (1 μM), vs untreated control (FIG. 10H)",increased efflux
